From patent publication EP4556003A1, “ANTI-OBESITY AND ANTI-DIABETIC ACTIVITY OF BROMINATED DITERPENES FROM RED ALGAE OF THE GENUS LAURENCIA AND APPLICATIONS THEREOF” (priority 2023, dated 2025)

Legend:
[1] = Serum biochemical toxicity markers in high fat diet-fed mice; assay type: in vivo, C57BL/6 adult male mice; details: intraperitoneal 0.25 mg/mouse every 48 h for 35 days; vs control group
Protocol: All procedures were conducted in compliance with protocols approved by the Animal Care Committee of the University of Crete, School of Medicine (Facility number EL91-BIOexp-06), in conjunction with the Veterinary Department of the Region of Crete, Heraklion, Crete, Greece. C57BL/6 adult male mice were maintained in a 12 h day/night cycle and 21-23 °C conditions. Mice were provided with water and either normal fat diet, or high fat diet (60% energy from fat) ad libitum. All mice were weighed every 48 h.
Neorogioldiol was first dissolved in 90% carbowaxTM 400, 10% (v/v) absolute ethanol solution and then diluted 1:10 in water for injection. A dose of 0.25 mg neorogioldiol in a total volume of 200 µl was administered intraperitoneally every 48 h in mice in high fat + neorogioldiol group starting from day 1. 4-5 mice were used per group and each experiment was performed twice.
To detect serum levels of alanine transaminase, aspartate transaminase, creatine phosphokinase and lactate dehydrogenase, serum was collected from peripheral blood via cardiac puncture under isoflurane anesthesia. Serum samples were stored at -80 °C. The levels of alanine transaminase, aspartate transaminase, creatine phosphokinase and lactate dehydrogenase were measured by standard enzymatic procedures using an automated biochemical analyzer AU5800 (Beckman).

3T3-L1 cells = experiment: MTT cell viability / proliferation assay; assay type: cell-based, Mouse
Protocol: The cell viability was evaluated using the MTT assay. 3T3-L1 cells were seeded at a density of 1×10^3 in 96-well plates and incubated for 24h. Compounds 1 and 2 were added in the wells at various concentrations and then incubated at 37 °C. Cells were treated with compound 1 at concentrations of 62.5, 46.875, 31.25, 15.625, 7.81 and 3.9 µM. Cells were treated with compound 2 at concentrations of 62.5, 25.0, 12.5, 6.25 and 3.125 µM. After 24, 48, and 72 h of treatment, MTT solution was added in the wells at a final concentration of 0.5 mg/mL and incubated for 4 h. Cell culture media with MTT was removed and the formazan crystals were dissolved in 100 µl/well isopropanol/HCl (0.4%) and the absorbance was measured at 600 nm using the Infinite® 200 PRO microplate plate reader (Tecan, Zurich, Switzerland).

Substance: neorogioldiol
- alanine transaminase in serum [1]: No difference
- aspartate transaminase in serum [1]: No difference
- creatine phosphokinase in serum [1]: No difference
- lactate dehydrogenase in serum [1]: No difference
- concentrations that did not exhibit cytotoxicity (3T3-L1 cells; concentration chosen for further analyses): 62.5 µM
- concentration with cytostatic effects (3T3-L1 cells; three-day incubation (24, 48, 72 h), compound 1: after the first 24 h of treatment): 62.5 µM
